# Source: patent US7939558B2, “Compounds having activity in increasing ion transport by mutant-CFTR and uses thereof” (The Regents of the University of California, priority 2004, dated 2011)
# Target: ΔF508-CFTR (Homo sapiens, UniProt P13569, DEL508-508)
# Test: Fluorescence (YFP-H148Q/I152L) I− influx assay of ΔF508-CFTR potentiator activity in FRT cells
# Assay type: cell-based
# Design: expressed in transfected cells
# Settings: phenylglycine containing compounds, 27° C. 24 h, forskolin 20 μM, read-out: Ka
# Procedure: Clonal populations of Fischer rat thyroid (FRT) epithelial cells stably co-expressing human ΔF508-CFTR and the high-sensitivity halide-sensing green fluorescent analog YFP-H148Q/I152L (Galietta et al., A.S. (2001) FEBS Lett. 499, 220-224) were generated by liposome transfection and limiting dilution with Zeocin/G418 selection. More than 100 clones were evaluated for high fluorescence and ΔF508-CFTR plasma membrane targeting after growth at 27° C. for 24 hours. For screening, cells were cultured on plastic in Coon's modified F12 medium supplemented with 10% fetal bovine serum, 2 mM L-glutamine, 100 U/ml penicillin, and 100 μg/ml streptomycin, and plated on black 96-well microplates (Corning-Costar 3904) at 30,000 cells/well. For short-circuit measurements cells were cultured on Snapwell permeable supports (Corning-Costar) at 500,000 cells/insert. Human nasal epithelium cells from CF patients were cultured on Snapwell inserts and allowed to differentiate in a hormone-supplemented medium (Galietta et al., Am. J. Physiol., […]). Some measurements were done using stably transfected FRT cells expressing YFP-H148Q and wildtype- or G551D-CFTR (Galietta et al., (2001) J. Biol. Chem. 276, 19723-19728). Patch clamp experiments were done on ΔF508-CFTR-expressing FRT cells plated in 35-mm Petri dishes.
# Screening was carried out using a Beckman integrated system containing a 3-meter robotic arm, CO2 incubator containing microplate carousel, plate-washer, liquid handling workstation, bar code reader, delidding station, plate sealer, and two FluoStar fluorescence plate readers (Galaxy, BMG Lab Technologies), each equipped with dual syringe pumps and HQ500/20X ([…]) excitation and HQ535/30M (535±15 nm) emission filters (Chroma). Software was written in VBA (Visual Basic for Applications) to compute baseline-subtracted fluorescence slopes (giving halide influx rates).
# For assay of ΔF508-CFTR potentiator activity the incubator (27° C., 90% humidity, 5% CO2/95% air) was loaded with forty-to-sixty 96-well plates containing FRT cells. After an 18-24 hour incubation plates were washed 3 times with PBS (300 μl/wash) leaving 50 μl PBS. 10 μl of PBS containing 120 μM forskolin was added, and after 5 min test compounds (0.6 μl of 0.25 mM DMSO solution) were added to each well to give 2.5 μM final compound concentrations. After 15 min, 96-well plates were transferred to a plate reader for fluorescence assay. Each well was assayed individually for I^− influx by recording fluorescence continuously (200 ms per point) for 2 seconds (baseline) and then for 12 seconds after rapid (<1 s) addition of 160 μL of isosmolar PBS in which 137 mM Cl^− was replaced by I^−. I^− influx rates were computed from initial fluorescence versus time-curve slopes (determined by 3rd order polynomial regression) after normalization for total fluorescence (background subtracted initial fluorescence). All compound plates contained negative control (DMSO vehicle alone) and positive controls (genistein, 5 μM and 50 μM). Assay analysis indicated a Z′-factor of >0.7 (Zhang et al., J. Biomol. Screen 4:67-73 (1999)).
# The high-throughput screen was designed to identify compounds that activated ΔF508-CFTR when expressed at the cell plasma membrane. FRT epithelial cells co-expressing ΔF508-CFTR and a high sensitivity yellow fluorescent protein-based halide indicator were incubated at 27° C. for 24 h to permit ΔF508-CFTR plasma membrane targeting (FIG. 1, panel A). After washing, forskolin (20 μM) and test compounds (2.5 μM) were added to individual wells of 96-well plates. The I^− influx assay was carried out ˜15 min later by measurement of the time course of decreasing YFP fluorescence after creation of an inwardly-directed I^− gradient. A high concentration of forskolin was used to identify ΔF508-CFTR potentiators that may interact directly with ΔF508-CFTR rather than alter cAMP concentration. […]
# ΔF508-CFTR, sequence (P13569 with tags, fused parts or gaps DEL508-508): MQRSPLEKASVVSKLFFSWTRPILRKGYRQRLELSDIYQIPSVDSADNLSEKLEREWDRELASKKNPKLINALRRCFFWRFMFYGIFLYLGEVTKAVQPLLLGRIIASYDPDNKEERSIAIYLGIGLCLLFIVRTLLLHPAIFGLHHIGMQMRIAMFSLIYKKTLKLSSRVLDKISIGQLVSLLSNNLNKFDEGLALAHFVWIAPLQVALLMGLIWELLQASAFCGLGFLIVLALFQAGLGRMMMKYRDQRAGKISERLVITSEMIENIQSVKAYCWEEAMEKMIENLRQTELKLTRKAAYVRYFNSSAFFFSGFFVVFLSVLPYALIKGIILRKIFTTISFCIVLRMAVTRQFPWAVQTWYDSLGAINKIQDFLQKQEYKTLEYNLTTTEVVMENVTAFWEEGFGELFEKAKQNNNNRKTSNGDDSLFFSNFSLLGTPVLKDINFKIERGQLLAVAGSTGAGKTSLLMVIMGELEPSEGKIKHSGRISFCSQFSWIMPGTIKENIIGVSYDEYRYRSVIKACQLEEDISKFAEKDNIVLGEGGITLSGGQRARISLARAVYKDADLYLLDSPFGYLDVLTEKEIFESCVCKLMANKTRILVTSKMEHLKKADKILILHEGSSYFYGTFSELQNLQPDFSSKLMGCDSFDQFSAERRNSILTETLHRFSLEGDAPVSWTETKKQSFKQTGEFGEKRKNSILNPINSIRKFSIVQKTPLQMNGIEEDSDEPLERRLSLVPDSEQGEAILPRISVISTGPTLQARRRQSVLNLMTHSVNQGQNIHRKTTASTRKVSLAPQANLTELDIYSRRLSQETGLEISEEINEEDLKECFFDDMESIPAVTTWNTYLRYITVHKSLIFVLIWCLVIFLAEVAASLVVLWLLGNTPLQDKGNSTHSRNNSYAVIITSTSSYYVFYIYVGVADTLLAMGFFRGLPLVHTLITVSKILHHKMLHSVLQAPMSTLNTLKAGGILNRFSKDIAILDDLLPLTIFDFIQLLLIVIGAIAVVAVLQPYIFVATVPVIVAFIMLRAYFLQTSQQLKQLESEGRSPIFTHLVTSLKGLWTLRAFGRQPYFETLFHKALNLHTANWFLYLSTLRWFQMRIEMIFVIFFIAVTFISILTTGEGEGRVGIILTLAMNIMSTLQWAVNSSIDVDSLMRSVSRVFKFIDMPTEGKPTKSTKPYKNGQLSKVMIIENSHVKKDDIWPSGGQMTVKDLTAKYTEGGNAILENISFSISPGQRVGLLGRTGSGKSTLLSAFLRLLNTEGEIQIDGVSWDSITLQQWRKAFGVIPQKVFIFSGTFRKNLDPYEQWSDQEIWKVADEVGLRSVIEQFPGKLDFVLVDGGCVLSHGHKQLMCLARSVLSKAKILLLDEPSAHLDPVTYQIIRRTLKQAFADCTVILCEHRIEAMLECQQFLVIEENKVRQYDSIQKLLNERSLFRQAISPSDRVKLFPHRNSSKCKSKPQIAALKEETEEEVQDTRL
row,EC50,SMILES
1,880 nM,"CC(C)c1ccc(NC(=O)C(NC(=O)Cc2c[nH]c3ccccc23)c2ccccc2)cc1 (stereo not shown) [Compound P-6, 2-(2-1H-Indol-3-yl-acetylamino)-N-(4-isopropyl-phenyl)-2-phenyl-acetamide]"
2,2330 nM,"Cc1ccc(C(NC(=O)Cc2cc3ccccc3[nH]2)C(=O)Nc2ccc3c(c2)OCCO3)cc1 (stereo not shown) [Compound P-9, N-(2,3-Dihydro-benzo[1,4]dioxin-6-yl)-2-(2-1H-indol-2-yl-acetylamino)-2-p-tolyl-acetamide]"
3,340 nM,"COc1ccc(C(C(=O)Nc2ccc(C(C)C)cc2)N(C)C(=O)Cc2c[nH]c3ccccc23)cc1 (stereo not shown) [Compound P-3, 2-[(2-1H-Indol-3-yl-acetyl)-methyl-amino]-N-(4-isopropyl-phenyl)-2-(4-methoxy-phenyl)-acetamide]"
4,2710 nM,"COc1ccc(C(C(=O)Nc2ccc3c(c2)OCCO3)N(C)C(=O)Cc2c[nH]c3ccccc23)cc1 (stereo not shown) [Compound P-10, N-(2,3-Dihydro-benzo[1,4]dioxin-6-yl)-2-[(2-1H-indol-3-yl-acetyl)-methyl-amino]-2-(4-methoxy-phenyl)-acetamide]"
5,1330 nM,"Cc1ccc(C(C(=O)Nc2ccc3c(c2)OCO3)N(C)C(=O)Cc2c[nH]c3ccccc23)cc1 (stereo not shown) [Compound P-7, N-Benzo[1,3]dioxol-5-yl-2-[(2-1H-indol-3-yl-acetyl)-methyl-amino]-2-p-tolyl-acetamide]"
6,2130 nM,"COc1ccc(NC(=O)C(c2ccc(OC)cc2)N(C)C(=O)Cc2c[nH]c3ccccc23)cc1 (stereo not shown) [Compound P-8, 2-[(2-1H-Indol-3-yl-acetyl)-methyl-amino]-2,N-bis-(4-methoxy-phenyl)-acetamide]"

# Same assay, conditions: sulfonamide containing compounds, 27° C. 24 h, forskolin 20 μM, read-out: Ka
row,EC50,SMILES
1,1140 nM,C=CCNC(=O)c1c[nH]c2ccc(S(=O)(=O)N(C)c3ccccc3CC)cc2c1=O [Compound S-52]
2,1450 nM,CCCNC(=O)c1c[nH]c2ccc(S(=O)(=O)N(C)c3ccc(Cl)cc3F)cc2c1=O [Compound S-62]
3,1560 nM,CCCCNC(=O)c1c[nH]c2ccc(S(=O)(=O)N(CC)c3ccc(F)cc3)cc2c1=O [Compound S-64]
4,140 nM,"CCN(c1ccccc1)S(=O)(=O)c1ccc2[nH]cc(C(=O)NCCCOC)c(=O)c2c1 [Compound S-9, 6-(Ethyl-phenyl-sulfamoyl)-4-oxo-1,4-dihydro-quinoline-3-carboxylic acid (3-methoxy-propyl)-amide]"
5,1020 nM,CCN(c1ccc(F)cc1)S(=O)(=O)c1ccc2[nH]cc(C(=O)NCCCOC)c(=O)c2c1 [Compound S-50]
6,1280 nM,CCC(C)NC(=O)c1c[nH]c2ccc(S(=O)(=O)N(C)c3ccccc3C)cc2c1=O (stereo not shown) [Compound S-59]
7,1370 nM,CCOCCCNC(=O)c1c[nH]c2ccc(S(=O)(=O)N(C)c3ccc(Cl)cc3F)cc2c1=O [Compound S-60]
8,660 nM,CN(c1ccc(Cl)cc1F)S(=O)(=O)c1ccc2[nH]cc(C(=O)NCC3CCCO3)c(=O)c2c1 (stereo not shown) [Compound S-38]
9,870 nM,"Cc1ccccc1N(C)S(=O)(=O)c1ccc2[nH]cc(C(=O)NCCC(C)C)c(=O)c2c1 [Compound S-47, 6-(Methyl-o-tolyl-sulfamoyl)-4-oxo-1,4-dihydro-quinoline-3-carboxylic acid (3-methyl-butyl)-amide]"
10,480 nM,CCN(c1cccc(C)c1)S(=O)(=O)c1ccc2[nH]cc(C(=O)NCCCOC)c(=O)c2c1 [Compound S-28]
11,1280 nM,CCCCCCNC(=O)c1c[nH]c2ccc(S(=O)(=O)N(CC)c3ccccc3)cc2c1=O [Compound S-57]
12,840 nM,CCCNC(=O)c1c[nH]c2ccc(S(=O)(=O)N(C)c3ccc(C)c(C)c3)cc2c1=O [Compound S-46]
13,220 nM,CCCCCNC(=O)c1c[nH]c2ccc(S(=O)(=O)N(C)c3cccc(C)c3)cc2c1=O [Compound S-15]
14,1420 nM,COCCCNC(=O)c1c[nH]c2ccc(S(=O)(=O)N(C)c3c(C)cccc3C)cc2c1=O [Compound S-61]
15,1280 nM,CCOC(CNC(=O)c1c[nH]c2ccc(S(=O)(=O)N(C)c3ccccc3CC)cc2c1=O)OCC [Compound S-58]
16,200 nM,CCCCNC(=O)c1c[nH]c2ccc(S(=O)(=O)N(C)c3ccccc3C)cc2c1=O [Compound S-13]
17,740 nM,CCCCNC(=O)c1c[nH]c2ccc(S(=O)(=O)N(CC)CC)cc2c1=O [Compound S-41]
18,370 nM,COc1ccc(Cl)cc1N(C)S(=O)(=O)c1ccc2[nH]cc(C(=O)NCCC3=CCCCC3)c(=O)c2c1 [Compound S-23]
19,440 nM,CCc1ccccc1N(C)S(=O)(=O)c1ccc2[nH]cc(C(=O)NC(C)CC)c(=O)c2c1 (stereo not shown) [Compound S-26]
20,440 nM,"CCC(C)NC(=O)c1c[nH]c2ccc(S(=O)(=O)N(C)c3cccc(C)c3)cc2c1=O (stereo not shown) [Compound S-25, 6-(Methyl-m-tolyl-sulfamoyl)-4-oxo-1,4-dihydro-quinoline-3-carboxylic acid sec-butylamide]"
21,1660 nM,CCOCCCNC(=O)c1c[nH]c2ccc(S(=O)(=O)N(C)c3ccccc3C)cc2c1=O [Compound S-65]
22,560 nM,CCCNC(=O)c1c[nH]c2ccc(S(=O)(=O)N(C)c3cccc(C)c3)cc2c1=O [Compound S-31]
23,110 nM,C=CCN(c1ccccc1)S(=O)(=O)c1ccc2[nH]cc(C(=O)NCCCC)c(=O)c2c1 [Compound S-6]
24,1160 nM,CCCCCCCCNC(=O)c1c[nH]c2ccc(S(=O)(=O)N(C)c3ccccc3OCC)cc2c1=O [Compound S-54]

# The remaining lines, values behind:
row,SMILES,EC50
1,CCN(c1ccccc1)S(=O)(=O)c1ccc2[nH]cc(C(=O)NC3CCCCC3)c(=O)c2c1 [Compound S-4],30 nM
2,CCN(c1ccccc1)S(=O)(=O)c1ccc2[nH]cc(C(=O)NCc3ccc(C)cc3)c(=O)c2c1 [Compound S-33],590 nM
3,CCN(c1ccccc1)S(=O)(=O)c1ccc2[nH]cc(C(=O)NCCC3=CCCCC3)c(=O)c2c1 [Compound S-16],240 nM
4,CCOC(CNC(=O)c1c[nH]c2ccc(S(=O)(=O)N(C)c3ccc(CC)cc3)cc2c1=O)OCC [Compound S-22],360 nM
5,"Cc1cccc(N(C)S(=O)(=O)c2ccc3[nH]cc(C(=O)NCCC4=CCCCC4)c(=O)c3c2)c1 [Compound S-29, 6-(Methyl-m-tolyl-sulfamoyl)-4-oxo-1,4-dihydro-quinoline-3-carboxylic acid (2-cyclohex-1-enyl-ethyl)-amide]",490 nM
6,CCN(c1ccccc1)S(=O)(=O)c1ccc2[nH]cc(C(=O)NCC3CCCO3)c(=O)c2c1 (stereo not shown) [Compound S-17],240 nM
7,CCN(CC)S(=O)(=O)c1ccc2[nH]cc(C(=O)NCc3ccc(OC)cc3)c(=O)c2c1 [Compound S-39],660 nM
8,C=CCN(c1ccccc1)S(=O)(=O)c1ccc2[nH]cc(C(=O)NC3CCCCCC3)c(=O)c2c1 [Compound S-7],120 nM
9,"O=C(NC1CCCCC1)c1c[nH]c2ccc(S(=O)(=O)N3CCc4ccccc43)cc2c1=O [Compound S-32, 6-(2,3-Dihydro-indole-1-sulfonyl)-4-oxo-1,4-dihydro-quinoline-3-carboxylic acid cyclohexylamide]",570 nM
10,Cc1ccc(C)c(N(C)S(=O)(=O)c2ccc3[nH]cc(C(=O)NCc4ccccn4)c(=O)c3c2)c1 [Compound S-8],130 nM
